# Tests used:
# Format in all cases: in vivo
# [1] = test system: spring barley, HORVS Montoya; assay: Tank-mix post-emergence crop damage, herbicide with and without safener cloquintocet-mexyl, greenhouse; set-up: key to Reduction [Difference]: damage without safener − damage with safener, % points (0–100% scale); settings: cloquintocet-mexyl 100 g a.i./ha
# Description: (§1) Seeds of crops (spring wheat, TRZAS; spring barley, HORVS; maize, ZEAMA) were placed in sandy loam soil in peat pots, covered with soil and cultivated in a greenhouse under good growth conditions. Two to three weeks after sowing, the test plants were treated at the 1 to 3-leaf stage. The herbicide/safener active compound combinations according to the invention, formulated as wettable powders or emulsion concentrates, and, in parallel tests, the correspondingly formulated individual active compounds were sprayed onto the green parts of the plants in various dosages using an amount of water of 300 l/ha (converted).
# (§2) The pots were returned under good growing conditions in a glasshouse and a visual assessment of herbicidal effects was made at intervals from 1 to 3 weeks after herbicide application (DAT=days after treatment). Assessment was on a percentage basis in comparison with untreated control plants (0%=no injury, 100%=complete kill).
# (§3) Reduction [Difference]=herbicide damage without safener−herbicide damage with safener
# (§4) Reduction [%]=(Reduction [Difference]*100)/herbicide damage without safener
# (§5) a) Plant Species, Variety: HORVS Montoya, Safener (SAF): Cloquintocet-Mexyl
# [2] = test system: spring wheat, TRZAS Triso; assay: Safener seed treatment, post-emergence herbicide application, crop damage; settings: for HER effect + SAF [%] / Reduction [%]: cloquintocet-mexyl 0, 5 g a.i./kg seed; for HER effect [%]: without safener
# Excerpt: (§6) For safener seed treatment trials, sufficient seed amounts of the respective crops (spring wheat (TRZAS); spring barley (HORVS)) were weighed into screw cap glass bottles with a minimum volume trice of the seeds.
# (§7) As a first step, specified safeners formulated as wettable powder (WP) or wettable granules (WG) were weighed out for the required dosages (g a.i./kg seed), corresponding to the seed amounts. The safener amounts were mixed with a coloured slurry blind formulation type, pre-diluted with milk at 3.5% fat rate (25 mgs slurry formulation plus 2 ml milk per 10 grams of seed). A tube roller was used for coating. The solutions were gradually pipetted each on the rotating seeds followed by coating for min. 3 hours until all liquid had been soaked up by the seeds. Thereafter, the coated seeds were put flat on open trays for drying over night at room temperature.
# (§8) Treated seeds were then placed into pots (7 cm diameter) on the surface of sandy loam, pressed down, flat covered with additional soil and finally covered with sandy soil, also pressed down, watered, and kept under good growth conditions in a greenhouse, until the plants had reached 2-leaf-stage (BBCH 12).
# (§9) At that stage, post-emergence application of the specified herbicides was done on: • a) pot sets containing plants with safener-coated seeds as described above, • b) as a reference, pot sets of plants without seed treatment.
# (§10) The herbicides were formulated as wettable powder (WP). Equivalent to the spray area, compound amounts were weighed out and diluted related to the water application rate (300 l/ha) to an aqueous suspension plus additive (1 l/ha MERO). Dosage related equivalents were conventionally sprayed on trays with the potted plants.
# (§11) After application, the test plants were kept under good growth conditions in a greenhouse. Assessment timings were 10 and 21 days after treatment (DAT) with the herbicide, by visual scoring of the crop damage in % (comparison of untreated with treated plants, either sprayed only with herbicide or with herbicide on plants with treated seeds).
# as §3, §4
# (§12) b) Plant Species, Variety: TRZAS Triso, Safener (SAF): Cloquintocet-Mexyl
# [3] = test system: spring wheat, TRZAS Triso; assay: Tank-mix post-emergence crop damage, herbicide with and without safener cloquintocet-mexyl, greenhouse; set-up: key to Reduction [Difference]: percentage points of damage: damage without safener minus damage with safener
# Description: as §1, §2, §3, §4, §12
# [4] = test system: spring barley, HORVS Montoya; assay: Safener seed treatment, post-emergence herbicide application, crop damage; set-up: key to Reduction [Difference]: % crop damage without safener minus % damage with safener; settings: for HER effect + SAF / Reduction [%] / Reduction [Difference]: cloquintocet-mexyl 0, 5 g a.i./kg seed
# Excerpt: as §6, §7, §8, §9, §10, §11, §3, §4, §5
# [5] = 10 DAT, HER dose 32 g a.i./ha, cloquintocet-mexyl 100 g a.i./ha
# [6] = 10 DAT, HER dose 2 g a.i./ha, cloquintocet-mexyl 50 g a.i./ha
# [7] = 10 DAT, HER dose 8 g a.i./ha, cloquintocet-mexyl 50 g a.i./ha
# [8] = 21 DAT, HER dose 8 g a.i./ha, cloquintocet-mexyl 50 g a.i./ha
# [9] = 21 DAT, HER dose 32 g a.i./ha, cloquintocet-mexyl 100 g a.i./ha
# [10] = 21 DAT, HER dose 1, 5 g a.i./ha
# [11] = 21 DAT, HER dose 1, 5 g a.i./ha, cloquintocet-mexyl 50 g a.i./ha
# [12] = 21 DAT, HER dose 16 g a.i./ha, cloquintocet-mexyl 100 g a.i./ha
smiles,measurement,setting,value
C=CC1(C(=O)NC2COC(C(=O)OC)C2)CC(c2cc(C)cc(F)c2)=NO1 (mixture of isomers) [Example 1.71],Reduction [%],"[1]; 21 DAT, HER dose 32 g a.i./ha",57%
same,Reduction [Difference],"[1]; 21 DAT, HER dose 32 g a.i./ha",40
same,HER effect + SAF [%],"[2]; 10 DAT, HER dose 8 g a.i./ha",0%
same,HER effect [%],"[2]; 10 DAT, HER dose 8 g a.i./ha",50%
same,HER effect + SAF [%],"[2]; 10 DAT, HER dose 32 g a.i./ha",0%
same,HER effect [%],"[2]; 10 DAT, HER dose 32 g a.i./ha",85%
same,HER effect + SAF,[3]; [5],10%
same,Reduction [%],[3]; [5],88%
same,Reduction [Difference],[3]; [5],75
COCCOC(=O)C1C=CC(NC(=O)C2(C)CC(c3cc(Cl)cc(C#N)c3)=NO2)C1 (stereo not shown) [Example 1.5],HER effect + SAF,"[4]; 21 DAT, HER dose 8 g a.i./ha",10%
same,Reduction [%],"[4]; 21 DAT, HER dose 8 g a.i./ha",80%
same,Reduction [Difference],"[4]; 21 DAT, HER dose 8 g a.i./ha",40
same,HER effect + SAF,"[4]; 21 DAT, HER dose 32 g a.i./ha",20%
same,Reduction [%],"[4]; 21 DAT, HER dose 32 g a.i./ha",75%
same,Reduction [Difference],"[4]; 21 DAT, HER dose 32 g a.i./ha",60
same,HER effect + SAF [%],"[2]; 21 DAT, HER dose 8 g a.i./ha",10%
same,HER effect [%],"[2]; 21 DAT, HER dose 8 g a.i./ha",90%
same,HER effect + SAF [%],"[2]; 21 DAT, HER dose 32 g a.i./ha",30%
same,HER effect [%],"[2]; 21 DAT, HER dose 32 g a.i./ha",95%
same,HER effect + SAF,[3]; [6],20%
same,Reduction [%],[3]; [6],60%
same,Reduction [Difference],[3]; [6],30
COCCOC(=O)C1C=CC(NC(=O)C2(C(F)(F)F)CC(c3cc(F)cc(C#N)c3)=NO2)C1 (stereo not shown) [Example 1.2],HER effect + SAF,"[4]; 10 DAT, HER dose 8 g a.i./ha",10%
same,HER effect + SAF,"[1]; 10 DAT, HER dose 8 g a.i./ha",10%
same,HER effect + SAF [%],"[2]; 10 DAT, HER dose 8 g a.i./ha",0%
same,HER effect [%],"[2]; 10 DAT, HER dose 8 g a.i./ha",90%
same,HER effect + SAF [%],"[2]; 10 DAT, HER dose 32 g a.i./ha",10%
same,HER effect [%],"[2]; 10 DAT, HER dose 32 g a.i./ha",90%
same,HER effect + SAF,[3]; [7],70%
same,Reduction [%],[3]; [7],22%
C=CC1(C(=O)NC2CC=C(C(=O)OC)C2)CC(c2cc(F)cc(F)c2)=NO1 (mixture of isomers) [Example 1.60],HER effect + SAF,"[1]; 21 DAT, HER dose 8 g a.i./ha",0%
same,Reduction [Difference],"[1]; 21 DAT, HER dose 8 g a.i./ha",80
same,HER effect + SAF [%],"[2]; 21 DAT, HER dose 8 g a.i./ha",10%
same,HER effect [%],"[2]; 21 DAT, HER dose 8 g a.i./ha",93%
same,HER effect + SAF [%],"[2]; 21 DAT, HER dose 32 g a.i./ha",10%
same,HER effect [%],"[2]; 21 DAT, HER dose 32 g a.i./ha",95%
same,HER effect + SAF,[3]; [8],70%
same,Reduction [%],[3]; [8],25%
same,Reduction [Difference],[3]; [8],23
same,HER effect,"[3]; 21 DAT, HER dose 8 g a.i./ha, without safener",93%
CC1(C(=O)NC2COC(C(=O)OCc3ccccc3)C2)CC(c2cccc(F)c2)=NO1 (mixture of isomers) [Example 1.79],Reduction [%],"[4]; 10 DAT, HER dose 24 g a.i./ha",86%
same,Reduction [Difference],"[4]; 10 DAT, HER dose 24 g a.i./ha",60
same,HER effect + SAF [%],"[2]; 10 DAT, HER dose 6 g a.i./ha",0%
same,HER effect [%],"[2]; 10 DAT, HER dose 6 g a.i./ha",30%
same,HER effect + SAF [%],"[2]; 10 DAT, HER dose 24 g a.i./ha",10%
same,HER effect [%],"[2]; 10 DAT, HER dose 24 g a.i./ha",50%
same,Reduction [Difference],"[3]; 10 DAT, HER dose 24 g a.i./ha, cloquintocet-mexyl 100 g a.i./ha",50
C=CC1(C(=O)NC2C=CC(C(=O)O)C2)CC(c2cc(F)cc(F)c2)=NO1 (stereo not shown) [Example 1.58],HER effect + SAF [%],"[2]; 21 DAT, HER dose 2 g a.i./ha",0%
same,HER effect [%],"[2]; 21 DAT, HER dose 2 g a.i./ha",85%
same,HER effect + SAF [%],"[2]; 21 DAT, HER dose 8 g a.i./ha",10%
same,HER effect [%],"[2]; 21 DAT, HER dose 8 g a.i./ha",93%
same,HER effect + SAF [%],"[2]; 21 DAT, HER dose 32 g a.i./ha",20%
same,Reduction [%],"[2]; 21 DAT, HER dose 32 g a.i./ha",78%
same,HER effect [%],"[2]; 21 DAT, HER dose 32 g a.i./ha",93%
same,HER effect + SAF,[3]; [8],50%
same,Reduction [%],[3]; [8],46%
same,Reduction [Difference],[3]; [8],43
same,HER effect + SAF,[3]; [9],60%
same,Reduction [%],[3]; [9],35%
same,Reduction [Difference],[3]; [9],33
COC(=O)C1C=CC(NC(=O)C2(C)CC(c3cccc(F)c3)=NO2)C1 (stereo not shown) [Example 1.20],Reduction [%],"[4]; 21 DAT, HER dose 32 g a.i./ha",88%
same,Reduction [Difference],"[4]; 21 DAT, HER dose 32 g a.i./ha",70
same,Reduction [%],"[1]; 21 DAT, HER dose 32 g a.i./ha",88%
same,Reduction [Difference],"[1]; 21 DAT, HER dose 32 g a.i./ha",70
same,HER effect + SAF [%],"[2]; 10 DAT, HER dose 8 g a.i./ha",0%
same,HER effect [%],"[2]; 10 DAT, HER dose 8 g a.i./ha",20%
same,HER effect + SAF [%],"[2]; 10 DAT, HER dose 32 g a.i./ha",0%
same,HER effect [%],"[2]; 10 DAT, HER dose 32 g a.i./ha",50%
same,Reduction [%],[3]; [5],80%
C=CC1(C(=O)NC2C=C(C(=O)OCC#N)OC2)CC(c2cc(F)cc(F)c2)=NO1 (stereo not shown) [Example 1.91],HER effect + SAF [%],[2]; [10],20%
same,Reduction [%],[2]; [10],71%
same,HER effect [%],[2]; [10],70%
same,HER effect + SAF [%],"[2]; 21 DAT, HER dose 6 g a.i./ha",30%
same,HER effect [%],"[2]; 21 DAT, HER dose 6 g a.i./ha",90%
same,HER effect + SAF [%],"[2]; 21 DAT, HER dose 24 g a.i./ha",20%
same,Reduction [%],"[2]; 21 DAT, HER dose 24 g a.i./ha",75%
same,HER effect [%],"[2]; 21 DAT, HER dose 24 g a.i./ha",80%
same,Reduction [%],[3]; [11],71%
same,Reduction [Difference],[3]; [11],50
same,Reduction [%],"[3]; 21 DAT, HER dose 24 g a.i./ha, cloquintocet-mexyl 100 g a.i./ha",75%
CC1(C(=O)NC2C=CC(C(=O)OCCCl)C2)CC(c2cc(F)cc(F)c2)=NO1 (mixture of isomers) [Example 1.47],HER effect + SAF,"[4]; 21 DAT, HER dose 12 g a.i./ha",0%
same,HER effect,"[4]; 21 DAT, HER dose 12 g a.i./ha, without safener",20%
same,Reduction [Difference],"[4]; 21 DAT, HER dose 48 g a.i./ha",75
same,HER effect + SAF [%],"[2]; 21 DAT, HER dose 4 g a.i./ha",10%
same,HER effect [%],"[2]; 21 DAT, HER dose 4 g a.i./ha",30%
same,HER effect + SAF [%],"[2]; 21 DAT, HER dose 16 g a.i./ha",10%
same,HER effect [%],"[2]; 21 DAT, HER dose 16 g a.i./ha",80%
same,HER effect + SAF,"[3]; 21 DAT, HER dose 4 g a.i./ha, cloquintocet-mexyl 50 g a.i./ha",0%
same,HER effect + SAF,[3]; [12],5%
same,Reduction [%],[3]; [12],94%
same,Reduction [Difference],[3]; [12],75

# From US20230276792A1, “SELECTIVE HERBICIDES BASED ON SUBSTITUTED ISOXAZOLIN CARBOXAMIDES AND CLOQUINTOCET-MEXYL” (Bayer Aktiengesellschaft, priority 2020, published 2023)
